The results in this text go back to patent US20150087627A1, “COMBINATION OF KINASE INHIBITORS AND USES THEREOF” (Intellikine LLC, priority 2011, published 2015).

Holding throughout (assay type): biochemical
In assay [1] the target is T1, PI3K α (p110α/p85α) (Homo sapiens, UniProt P42336).
T1 construct: purchased Upstate / Millipore Corporation
In words: PI 3-Kinase (human) HTRF assay, PI3K α. To be noted: read-out: PI3K α IC50. For orientation: In TR-FRET formats the signal depends on donor and acceptor labels being close together.

For assay [2], the target named is T2, PI3K δ (Homo sapiens, UniProt O00329).
T2 construct: purchased Upstate / Millipore Corporation
T2 sequence (O00329 whole entry): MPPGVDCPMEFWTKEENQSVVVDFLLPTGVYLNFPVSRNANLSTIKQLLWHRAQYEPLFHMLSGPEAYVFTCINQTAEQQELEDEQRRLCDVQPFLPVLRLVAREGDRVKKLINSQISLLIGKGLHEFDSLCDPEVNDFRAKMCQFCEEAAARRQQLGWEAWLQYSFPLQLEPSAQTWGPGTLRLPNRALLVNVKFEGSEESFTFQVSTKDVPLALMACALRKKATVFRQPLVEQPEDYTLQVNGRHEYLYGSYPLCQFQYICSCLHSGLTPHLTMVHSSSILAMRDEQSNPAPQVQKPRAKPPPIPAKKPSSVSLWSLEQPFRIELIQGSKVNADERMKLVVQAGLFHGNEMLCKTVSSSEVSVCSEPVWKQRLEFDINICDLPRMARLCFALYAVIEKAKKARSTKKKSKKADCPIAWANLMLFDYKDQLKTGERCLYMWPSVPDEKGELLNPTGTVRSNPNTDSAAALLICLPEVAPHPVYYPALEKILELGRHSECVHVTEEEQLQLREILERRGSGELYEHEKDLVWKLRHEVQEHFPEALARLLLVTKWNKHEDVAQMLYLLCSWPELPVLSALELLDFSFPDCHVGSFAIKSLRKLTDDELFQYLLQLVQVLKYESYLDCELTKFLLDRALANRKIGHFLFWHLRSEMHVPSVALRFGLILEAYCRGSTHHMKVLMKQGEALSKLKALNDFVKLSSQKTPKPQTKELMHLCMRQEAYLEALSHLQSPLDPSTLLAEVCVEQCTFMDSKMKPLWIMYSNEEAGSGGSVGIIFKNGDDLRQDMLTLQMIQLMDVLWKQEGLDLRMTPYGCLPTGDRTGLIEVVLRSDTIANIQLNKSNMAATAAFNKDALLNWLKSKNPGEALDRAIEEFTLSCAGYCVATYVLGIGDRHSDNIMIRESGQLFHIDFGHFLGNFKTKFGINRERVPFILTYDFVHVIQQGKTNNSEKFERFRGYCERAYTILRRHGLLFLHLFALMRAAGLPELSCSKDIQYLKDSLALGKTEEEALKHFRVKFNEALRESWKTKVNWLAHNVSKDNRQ
T2 sequence (P27986 whole entry partner): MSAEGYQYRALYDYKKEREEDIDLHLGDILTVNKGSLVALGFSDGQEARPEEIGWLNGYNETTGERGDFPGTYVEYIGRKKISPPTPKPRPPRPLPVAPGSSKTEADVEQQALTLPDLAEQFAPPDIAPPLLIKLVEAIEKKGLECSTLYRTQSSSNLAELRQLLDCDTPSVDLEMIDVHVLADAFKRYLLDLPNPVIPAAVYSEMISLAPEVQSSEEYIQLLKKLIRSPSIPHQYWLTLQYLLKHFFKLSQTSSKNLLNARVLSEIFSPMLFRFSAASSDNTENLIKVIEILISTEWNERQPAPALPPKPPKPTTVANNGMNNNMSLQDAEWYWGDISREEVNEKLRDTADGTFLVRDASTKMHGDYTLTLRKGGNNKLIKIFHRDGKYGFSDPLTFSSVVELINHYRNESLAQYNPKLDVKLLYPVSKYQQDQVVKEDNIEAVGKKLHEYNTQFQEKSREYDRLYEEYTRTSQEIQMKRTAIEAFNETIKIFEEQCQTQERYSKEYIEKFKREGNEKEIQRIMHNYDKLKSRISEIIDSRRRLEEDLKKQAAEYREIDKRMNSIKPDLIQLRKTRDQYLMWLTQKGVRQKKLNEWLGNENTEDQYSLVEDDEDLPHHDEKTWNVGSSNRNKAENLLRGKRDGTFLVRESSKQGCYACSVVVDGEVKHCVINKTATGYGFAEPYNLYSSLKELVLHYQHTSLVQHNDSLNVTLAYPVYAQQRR
In words: PI 3-Kinase (human) HTRF assay, PI3K δ.

For assay [3], the target named is T3, PI3K β (p110β/p85α) (Homo sapiens, UniProt P42338).
T3 construct: purchased Upstate / Millipore Corporation
T3 sequence (P42338 whole entry): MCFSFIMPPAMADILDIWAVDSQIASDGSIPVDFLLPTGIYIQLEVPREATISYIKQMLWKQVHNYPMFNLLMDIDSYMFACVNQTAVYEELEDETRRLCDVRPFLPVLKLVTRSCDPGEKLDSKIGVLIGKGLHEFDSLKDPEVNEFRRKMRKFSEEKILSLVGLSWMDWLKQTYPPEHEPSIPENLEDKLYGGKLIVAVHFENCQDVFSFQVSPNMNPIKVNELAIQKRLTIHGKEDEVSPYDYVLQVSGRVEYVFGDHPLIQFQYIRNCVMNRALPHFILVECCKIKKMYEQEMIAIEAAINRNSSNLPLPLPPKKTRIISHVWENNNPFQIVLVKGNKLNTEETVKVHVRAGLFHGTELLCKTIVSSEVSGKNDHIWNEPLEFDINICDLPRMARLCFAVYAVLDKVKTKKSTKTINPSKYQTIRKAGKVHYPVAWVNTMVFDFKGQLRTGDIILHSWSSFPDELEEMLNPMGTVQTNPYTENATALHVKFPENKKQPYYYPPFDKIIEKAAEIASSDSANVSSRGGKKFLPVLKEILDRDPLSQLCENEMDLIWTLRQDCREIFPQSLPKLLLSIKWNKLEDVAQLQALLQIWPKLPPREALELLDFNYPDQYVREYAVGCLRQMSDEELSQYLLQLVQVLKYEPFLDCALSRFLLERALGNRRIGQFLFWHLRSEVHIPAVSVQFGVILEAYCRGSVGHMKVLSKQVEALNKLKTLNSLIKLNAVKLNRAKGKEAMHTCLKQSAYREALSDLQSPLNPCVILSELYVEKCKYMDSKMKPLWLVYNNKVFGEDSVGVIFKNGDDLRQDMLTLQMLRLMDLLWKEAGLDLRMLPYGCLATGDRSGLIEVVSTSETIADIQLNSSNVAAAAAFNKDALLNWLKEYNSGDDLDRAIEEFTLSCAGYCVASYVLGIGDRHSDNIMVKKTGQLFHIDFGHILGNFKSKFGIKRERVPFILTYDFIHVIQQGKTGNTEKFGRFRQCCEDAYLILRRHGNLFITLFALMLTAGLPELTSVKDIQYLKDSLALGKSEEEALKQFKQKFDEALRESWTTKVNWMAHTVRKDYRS
T3 sequence (P27986 whole entry partner): as the sequence (P27986 whole entry partner) above
In words: PI 3-Kinase (human) HTRF assay, PI3K β. To be noted: for pIC50: read-out: PI3K β IC50.

Assay [4] has as its target T4, PI3K γ (p110γ) (Homo sapiens, UniProt P48736).
T4 construct: purchased Upstate / Millipore Corporation
Nature of the assay: PI 3-Kinase (human) HTRF assay, PI3K γ. To be noted: read-out: PI3K γ IC50.

pIC50: −log10 of the molar value. Read-outs that look alike come from different tables or passages of the source.

T1 sequence (P42336 whole entry): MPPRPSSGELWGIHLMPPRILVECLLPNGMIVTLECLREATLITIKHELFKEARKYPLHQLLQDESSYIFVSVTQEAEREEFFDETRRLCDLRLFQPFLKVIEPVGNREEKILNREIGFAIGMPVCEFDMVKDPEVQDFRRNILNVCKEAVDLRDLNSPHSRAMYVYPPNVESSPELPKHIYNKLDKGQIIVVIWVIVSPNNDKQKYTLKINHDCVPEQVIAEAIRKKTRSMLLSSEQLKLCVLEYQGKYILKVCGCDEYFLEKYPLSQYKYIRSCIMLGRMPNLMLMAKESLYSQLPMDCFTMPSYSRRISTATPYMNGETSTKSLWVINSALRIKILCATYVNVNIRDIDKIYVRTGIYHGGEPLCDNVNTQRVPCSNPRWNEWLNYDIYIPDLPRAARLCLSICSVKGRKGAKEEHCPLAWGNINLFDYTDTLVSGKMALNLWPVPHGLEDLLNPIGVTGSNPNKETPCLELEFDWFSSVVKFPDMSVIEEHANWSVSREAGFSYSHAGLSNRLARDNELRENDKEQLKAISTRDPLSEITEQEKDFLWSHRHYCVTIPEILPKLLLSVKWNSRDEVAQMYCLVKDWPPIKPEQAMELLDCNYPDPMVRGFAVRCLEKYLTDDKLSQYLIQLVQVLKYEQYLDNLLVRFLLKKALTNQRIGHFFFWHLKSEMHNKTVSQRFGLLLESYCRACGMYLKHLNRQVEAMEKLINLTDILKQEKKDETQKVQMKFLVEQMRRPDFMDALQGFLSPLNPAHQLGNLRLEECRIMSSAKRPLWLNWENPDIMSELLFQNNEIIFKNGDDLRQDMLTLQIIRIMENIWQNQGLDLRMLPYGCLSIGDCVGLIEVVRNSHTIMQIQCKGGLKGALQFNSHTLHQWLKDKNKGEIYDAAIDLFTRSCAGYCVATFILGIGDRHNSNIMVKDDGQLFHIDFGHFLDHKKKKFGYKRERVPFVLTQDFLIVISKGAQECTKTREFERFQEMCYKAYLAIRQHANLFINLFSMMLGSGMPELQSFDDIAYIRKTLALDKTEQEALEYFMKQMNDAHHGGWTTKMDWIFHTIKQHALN
T1 sequence (P27986 whole entry partner): as the sequence (P27986 whole entry partner) above
T4 sequence (P48736 whole entry): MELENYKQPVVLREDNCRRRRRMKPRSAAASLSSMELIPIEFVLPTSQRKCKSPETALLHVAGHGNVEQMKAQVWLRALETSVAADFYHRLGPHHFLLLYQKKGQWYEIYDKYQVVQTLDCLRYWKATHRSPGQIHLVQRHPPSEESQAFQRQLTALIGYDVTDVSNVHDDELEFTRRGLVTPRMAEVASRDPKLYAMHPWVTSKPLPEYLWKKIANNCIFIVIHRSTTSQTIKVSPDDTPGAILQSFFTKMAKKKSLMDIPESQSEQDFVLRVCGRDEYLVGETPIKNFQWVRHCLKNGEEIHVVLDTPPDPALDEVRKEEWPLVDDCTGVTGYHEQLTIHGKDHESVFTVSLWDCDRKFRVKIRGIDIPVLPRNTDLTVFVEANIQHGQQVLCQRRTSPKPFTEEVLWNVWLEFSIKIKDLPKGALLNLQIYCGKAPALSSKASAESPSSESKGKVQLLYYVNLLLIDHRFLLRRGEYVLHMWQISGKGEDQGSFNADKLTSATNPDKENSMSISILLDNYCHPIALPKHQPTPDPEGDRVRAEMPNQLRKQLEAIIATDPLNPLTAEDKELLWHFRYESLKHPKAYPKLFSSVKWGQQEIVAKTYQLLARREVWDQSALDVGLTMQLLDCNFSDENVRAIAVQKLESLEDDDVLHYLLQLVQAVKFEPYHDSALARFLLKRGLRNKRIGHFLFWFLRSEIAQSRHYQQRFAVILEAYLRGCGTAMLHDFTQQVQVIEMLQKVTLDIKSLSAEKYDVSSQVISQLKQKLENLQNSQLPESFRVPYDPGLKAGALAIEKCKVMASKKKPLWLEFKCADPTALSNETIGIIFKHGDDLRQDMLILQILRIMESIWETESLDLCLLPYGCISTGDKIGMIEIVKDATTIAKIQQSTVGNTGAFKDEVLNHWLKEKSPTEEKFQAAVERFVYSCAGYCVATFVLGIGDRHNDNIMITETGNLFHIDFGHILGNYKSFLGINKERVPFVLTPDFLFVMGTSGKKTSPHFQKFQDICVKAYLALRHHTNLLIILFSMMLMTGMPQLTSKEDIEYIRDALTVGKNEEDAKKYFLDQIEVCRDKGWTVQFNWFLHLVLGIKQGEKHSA

On to `Cc1nccn1-c1cnc2ccc(-c3ccc4oc(N)nc4c3)cc2n1` [Compound 174], for which the pIC50 (as a rule, −log10 of the IC50, conventionally taken in molar units) in assay [1] is greater than 7.00; in assay [2] (read-out: PI3K δ IC50) it was greater than 5.00; in assay [3] it was greater than 6.00; in assay [4], greater than 7.00.
`Nc1nc2cc(-c3ccc4ncc(C(=O)N5CCCC5)n4c3)ccc2o1` [Compound 186]: the pIC50 in assay [1] is greater than 7.00; in assay [2] (read-out: PI3K δ IC50), greater than 6.00; in assay [3], greater than 5.00; in assay [4] it was greater than 7.00.
On to `Nc1nc2cc(-c3ccc4ncc(N5CC(N6CCNCC6)C5)nc4n3)ccc2o1` [Compound 585], for which the pIC50 was greater than 6.00 in assay [1] (Table 4 (PI3K α inhibitors)); less than 5.00 in assay [2] (Table 4 (PI3K α inhibitors), read-out: PI3K δ IC50); less than 5.00 in assay [3] (Table 4 (PI3K α inhibitors)); less than 5.00 in assay [4] (Table 4 (PI3K α inhibitors)).
In the case of `Nc1nc2cc(-c3ccc4ncnc(NC5CCN(C(=O)C6CC6)CC5)c4c3)ccc2o1` [Compound 89], the pIC50 in assay [1] was greater than 7.00; in assay [2] (read-out: PI3K δ IC50) it was greater than 7.00; in assay [3], greater than 5.00; in assay [4], greater than 7.00.
`Cc1cc(-c2ccc3nc(N)oc3c2)cn2c(N3CCN(C)CC3)nnc12` [Compound 546]: the pIC50 in assay [1], in assay [2] (read-out: PI3K δ IC50), in assay [3] and in assay [4] was less than 5.00 throughout.
Turning to `Nc1nc2cc(-c3ccc4ncc(C(=O)N5CC6(C5)OCCO6)n4c3)ccc2o1` [Compound 494], the pIC50 in assay [1] was greater than 7.00; in assay [2], less than 5.00; in assay [4], greater than 6.00. Also, the IC50 (in general, the concentration needed to halve the response being measured) in assay [3] (PI3K β IC50 (nM)) is less than 10000 nM.
For the compound `CNC(=O)C1CN(c2cnc3ccc(-c4ccc5oc(N)nc5c4)cc3n2)C1` [Compound 214], the pIC50 in assay [1] is greater than 7.00; in assay [2] (read-out: PI3K δ IC50), greater than 5.00; in assay [3] it was greater than 7.00; in assay [4], greater than 6.00.
Consider `Nc1nc2cc(-c3ccc4ncc(-c5cccnc5)n4n3)ccc2o1` [Compound 58], for which the pIC50 in assay [1], in assay [2] (read-out: PI3K δ IC50), in assay [3] and in assay [4] was greater than 7.00 throughout.
On to `Nc1nc2cc(-c3ccc4ncc(C(=O)NC5CC5)n4c3)ccc2o1` [Compound 187], for which the pIC50 in assay [1] is greater than 7.00; in assay [2] (read-out: PI3K δ IC50), greater than 6.00; in assay [3], greater than 5.00; in assay [4], greater than 7.00.
For `CC(C)(C)N1CCN(c2cnc3ccc(-c4ccc5oc(N)nc5c4)cc3n2)CC1` [Compound 182], the pIC50 in assay [1] was greater than 7.00; in assay [2] (read-out: PI3K δ IC50) it was greater than 6.00; in assay [3] it was greater than 6.00; in assay [4], greater than 6.00.
Regarding `CC1CN(C(=O)c2cnc3ccc(-c4ccc5oc(N)nc5c4)cn23)CCN1` (centres unmarked) [Compound 164], the pIC50 in assay [1] is greater than 6.00; in assay [2] (read-out: PI3K δ IC50), less than 5.00; in assay [3], greater than 6.00; in assay [4], less than 5.00.
As for `Nc1nc2cc(-c3ccc4ncn(C5CCOCC5)c4c3)ccc2o1` [Compound 48], the pIC50 is greater than 5.00 in assay [1], less than 5.00 in assay [2] (read-out: PI3K δ IC50), less than 5.00 in assay [3] and less than 5.00 in assay [4].
As for `Nc1nc2cc(-c3ccc4ncc(N5CC(N6CCCC6)C5)nc4c3)ccc2o1` [Compound 314], the pIC50 in assay [1] was greater than 6.00; in assay [2] (read-out: PI3K δ IC50) it was greater than 5.00; in assay [3] it was greater than 5.00; in assay [4], greater than 5.00.
On to `Nc1nc2ccc(-c3cc(F)c4ncc(C(=O)N5CCOCC5)n4c3)cc2o1` [Compound 439], for which the pIC50 in assay [1] is greater than 5.00; in assay [2] (read-out: PI3K δ IC50) it was less than 5.00; in assay [3] it was less than 5.00; in assay [4], less than 5.00.
Consider `CN1CCN(c2cnc3ccc(-c4ccc5nc(N)sc5c4)cc3n2)CC1` [Compound 115], for which the pIC50 in assay [1] is greater than 7.00; in assay [2] (read-out: PI3K δ IC50), less than 5.00; in assay [3], greater than 7.00; in assay [4], greater than 5.00.
With `C[C@@H]1CN(C2CN(c3cnc4ccc(-c5ccc6oc(N)nc6c5)cc4n3)C2)CCN1` [Compound 355], the pIC50 in assay [1] is greater than 7.00; in assay [2] (read-out: PI3K δ IC50) it was greater than 6.00; in assay [3], greater than 5.00; in assay [4] it was greater than 5.00.
In the case of `Nc1nc2cc(-c3ccc4ncc(C(=O)N5CC(n6cccn6)C5)n4c3)ccc2o1` [Compound 479], the pIC50 is greater than 7.00 in assay [1], greater than 5.00 in assay [2] (read-out: PI3K δ IC50), less than 5.00 in assay [3] and greater than 6.00 in assay [4].
For `Nc1nc2cc(-c3ccc4ncc(-c5cnn(CCO)c5)nc4c3)ccc2o1` [Compound 108], in that order: greater than 7.00, less than 5.00, greater than 5.00 and greater than 7.00.
Regarding `Nc1nc2cc(-c3ccc4ncc(N5CCC(n6cccn6)CC5)nc4c3)ccc2o1` [Compound 337], the negative logarithm of the IC50 (pIC50) is greater than 7.00 in assay [1], less than 5.00 in assay [2] (read-out: PI3K δ IC50), less than 5.00 in assay [3] and greater than 6.00 in assay [4].
For the compound `CN(CCN1CCOCC1)c1cnc2ccc(-c3ccc4oc(N)nc4c3)cc2n1` [Compound 166], the pIC50 in assay [1] was greater than 6.00; in assay [2] (read-out: PI3K δ IC50), less than 5.00; in assay [3], greater than 5.00; in assay [4], greater than 5.00.
